Assay results as given in patent publication US10561638B2, “Methods for treating dependence” (Biotie Therapies, Inc., priority 2007, dated 2020).
“Also recorded” adds a separate entry of the source.

Legend:
[1] = Pharmacokinetics and brain levels in rats; format: in vivo
Procedure: Male rats (Crl: CD BR Vaf+) weighing 180-220 g were fasted overnight before dosing and until 4 hr after dosing. Doses were formulated in water containing 2% 1-hydroxypropyl methylcellulose (50 centipoises viscosity), 1% benzyl alcohol, and 0.6% Tween 80 (all obtained from Sigma Chemical Company). Concentration of drug in the dose solutions was 5, 15, and 50 mg/ml for the 10, 30, and 100 mg/kg doses, respectively, and was verified by liquid chromatography (LC). The 5 mg/ml dose was a clear solution and the higher concentrations were a translucent suspension. Dose volumes were 2.0 ml/kg. At various times after dosing, samples of blood were obtained by cardiac puncture with heparinized syringes, and plasma was prepared by centrifugation. Brains of rats were surgically excised, and all samples were frozen at −20° C. until analysis.
Aliquots of plasma (0.05 or 0.5 ml) were mixed with internal standard (50 μl of methanol containing 5 μg/ml a monofluoro analog of nepicastat, and 5 mg/ml dithiothreitol). […] Concentrations of analytes were determined from a standard curve generated from the analysis of plasma from untreated rats fortified with known concentrations of analyte. Plasma concentration data are expressed as μg (free base) per ml. […]
Following addition of 100 μl of methanol to the aqueous phase (to disperse any emulsion), 100 μl aliquots were assayed by LC as described for plasma. Level in brain are expressed as μg (free base) per g of brain tissue.
Pharmacokinetic parameters were calculated from mean plasma concentrations. Plasma half-life (T1/2) was calculated as 0.693/β, where β is the elimination rate constant determined by linear regression of the log plasma concentration vs. time data within the terminal linear portion of the data. Areas under the plasma concentration vs. time curve (AUC) from zero to the time of the last quantifiable plasma concentrations were calculated by the trapezoidal rule. AUC from zero to infinity (AUCtotal 1 was calculated as: AUCtotal=AUC(0−Clast)+Clast/β where Clast is the last quantifiable plasma concentration.

[2] = tested on: plasma dopamine/norepinephrine; assay: Plasma dopamine/norepinephrine in congestive heart failure patients; format: in vivo, human
Procedure: In studies of congestive heart failure patients, changes in plasma dopamine levels, norepinephrine levels, and dopamine/norepinephrine ratios after treatment with nepicastat in a 10 day study were determined.
In studies of congestive heart failure patients, plasma dopamine levels, norepinephrine levels, and dopamine/norepinephrine ratios and changes of the levels and the ratios after treatment with nepicastat in a 30 day study were determined.

[3] = tested on: MPTP-lesioned squirrel monkey; assay: MPTP-lesioned squirrel monkey Parkinsonian model; format: in vivo, squirrel monkeys
Procedure: Twenty four squirrel monkeys, fourteen females and ten males were used in a Parkinsonian model. The twenty-four animals were randomly assigned to one of four treatment groups, with 6 animals per group. The groups consisted of the following: Group A (6 animals) received placebo (water) treatment; Group B (5 animals) received drug nepicastat at 1 mg/kg/day (0.5 mg/kg twice daily); Group C (6 animals) received 4 mg/kg/day (2 mg/kg twice daily); and Group D (6 animals) received 10 mg/kg/day (5 mg/kg twice daily). In Group B, one animal died acutely following MPTP-lesioning, and was not replaced.
Prior to lesioning, animals were subjected to quantitative assessment of spontaneous motor activity using an infrared activity monitor (IRAM) cage. All recording sessions were 60 minutes in length and were carried out for 10 sessions over a period of 2 weeks. The behavior of animals was also assessed by 1 to 3 clinical raters using a parkinsonian clinical rating scale (CRS) once per day (12 noon to 1 pm) for 3 to 5 consecutive days. […] Both the activity monitoring (IRAM) and clinical rating assessments established the mean base-line activity of each animal.
Animals were lesioned by the administration of MPTP at a concentration of 2.0 mg/kg (free-base) via subcutaneous injection to achieve a parkinsonian state. A post-MPTP lesioning behavioral assessment was carried out 2 to 4 weeks after the last MPTP-lesioning. Locomotor activity was monitored by IRAM in 60-minute sessions for 3 to 5 days. Clinical behavior (CAS) was assessed by one to three individuals rating over a period of 3 to 5 days.
Animals were tested for response to L-Dopa and the efficacy of drug nepicastat. Testing was carried out 4 to 12 weeks after the last MPTP dose. L-Dopa was administered at a concentration of either 2.5, 5, or 7.5 mg/kg by oral gavage twice daily (at 10 am and 2 pm) for 7 consecutive days. Behavior was determined by IRAM and CRS. Clinical rating was carried out 60 to 90 minutes following the 10 am morning dose on the last 4 days of treatment. Raters (one to three individuals) were blinded to the different treatment groups. IRAM assessment were preformed for 90 minutes immediately following drug administration at 2 pm on the last 2 to 5 days of drug treatment. There was a minimum 2 day washout period between each treatment dose.
Nepicastat or water (as placebo) was administered for 12 days following a minimum 2 day washout after L-Dopa dosing. Drug was administered twice daily at 10 am and 2 pm by oral gavage. Behavior was rated by IRAM and CRS. The CRS was conducted in the morning, 60 to 90 minutes after the 10 am dose of nepicastat on the last 5 days of drug treatment. Raters (one to three individuals) were blinded to the different treatment groups. IRAM assessments were preformed for 90 minutes immediately following drug administration at 2 pm on the last 5 days of drug treatment.
Eight parkinsonian features were rated in each animal and the total score was derived from the sum of these eight features. For each animal, a single clinical rating score was obtained for each drug dose by averaging the clinical rating scores of all raters (one to three) conducted over the consecutive multiple dosing (with the same dose) days. This average CRS was used for statistical analysis. A lower score was considered a less parkinsonian behavioral state.
Statistical analysis consisted of: (1) comparisons between the average CRS of placebo to nepicastat at 1, 4, and 10 mg/kg/day using the Kruskal-Wallis (non-parametric analysis of variance). This comparison was repeated using the average CRS for each experimental drug concentration corrected by the final post-MPTP ratings for each animal. The corrected clinical scores are clinical scores of experimental drug at each concentration as a ratio of post-MPTP clinical scores. […]

Cl.NCc1c[nH]c(=S)n1[C@H]1CCc2c(F)cc(F)cc2C1 [nepicastat, (S)-5-Aminomethyl-1-(5,7-difluoro-1,2,3,4-tetrahydronaphth-2-yl)-2,3-dihydro-2-thioxo-1H-imidazole hydrochloride]
plasma AUCtotal, higher in female than in male rats ([1]; 30 mg/kg oral): 77% | brain vs plasma concentrations ([1]; male rats, 10 mg/kg oral, from 2 hr onward, hydrochloride, 10 mg/kg): concentrations of nepicastat in brain exceeded those in plasma; also recorded: levels of nepicastat in brain were greater than in plasma | relationship between AUCtotal and dose ([1]; male rats, 10-100 mg/kg): linear | dopamine/norepinephrine levels ([2]; 10 day study): increased dopamine/norepinephrine levels | dopamine/norepinephrine levels ([2]; 30 day study): increased dopamine/norepinephrine levels | activity monitoring (IRAM) vs placebo ([3]; 1 mg/kg/day): slower than placebo treatment | parkinsonian clinical rating vs placebo ([3]; 1, 4, 10 mg/kg/day, 12 days, hydrochloride): no detectable differences; also recorded: no significant effect in parkinsonian symptoms compared to placebo | activity monitoring (IRAM) vs placebo ([3]; 4 and 10 mg/kg/day): no difference | parkinsonian clinical rating vs post-MPTP (pre-treatment) state ([3]; nepicastat 4 and 10 mg/kg/day, hydrochloride): significant improvement over the post-MPTP (pre-treatment) state; also recorded: significant effect in parkinsonian symptoms compared to post-MPTP lesioning
